# Experimental data taken from ChEMBL document CHEMBL3046446, “Structure and Acaricidal Activity of Pyrazolecarboxamides and Thiazole-5-carboxamides” (1994).
# Tests used:
# Type in all cases: functional
# Settings in all cases: 120 h
# Tetranychus urticae [1] = experiment: Acaricidal activity against Tetranychus urticae (two-spotted spider mite) in kidney bean leaf assessed as mortality at 3.1 ppm at 25 degC measured after 5 days
# Tetranychus urticae [2] = experiment: Acaricidal activity against Tetranychus urticae (two-spotted spider mite) in kidney bean leaf assessed as mortality at 500 ppm at 25 degC measured after 5 days
# Tetranychus urticae [3] = experiment: Acaricidal activity against Tetranychus urticae (two-spotted spider mite) in kidney bean leaf assessed as mortality at 12.5 ppm at 25 degC measured after 5 days
# Tetranychus urticae [4] = experiment: Acaricidal activity against Tetranychus urticae (two-spotted spider mite) in kidney bean leaf assessed as mortality at 50 ppm at 25 degC measured after 5 days
# Tetranychus urticae [5] = experiment: Acaricidal activity against Tetranychus urticae (two-spotted spider mite) in kidney bean leaf assessed as mortality at 200 ppm at 25 degC measured after 5 days
SMILES,mortality at 3.1 ppm (Tetranychus urticae [1]) [%],mortality at 500 ppm (Tetranychus urticae [2]) [%],mortality at 12.5 ppm (Tetranychus urticae [3]) [%],mortality at 50 ppm (Tetranychus urticae [4]) [%],mortality at 200 ppm (Tetranychus urticae [5]) [%]
CCn1nc(C)cc1C(=O)NCc1ccc(C(C)(C)C)cc1,0,0,0,0,0
CCc1cc(C(=O)NCc2ccc(C(C)(C)C)cc2)n(C)n1,0,100,100,100,100
CCc1cc(C(=O)NCc2ccc(C(C)(C)C)cc2)nn1C,0,0,0,0,0
Cc1ncsc1C(=O)NCc1ccc(C(C)(C)C)cc1,0,30,0,0,0
CCn1ncc(C(=O)NCc2ccc(C(C)(C)C)cc2)c1C,0,0,0,0,0
CCn1cc(C(=O)NCc2ccc(C(C)(C)C)cc2)c(C)n1,0,100,30,100,100
Cc1nc(C)c(C(=O)NCc2ccc(C(C)(C)C)cc2)s1,0,100,0,100,100
Cc1nn(C)cc1C(=O)NCc1ccc(C(C)(C)C)cc1,0,100,0,0,80
Cc1cc(C(=O)NCc2ccc(C(C)(C)C)cc2)n(C)n1,0,100,30,100,100
CCc1nc(C)c(C(=O)N(C)Cc2ccc(C(C)(C)C)cc2)s1,0,100,30,100,100
